From patent US20090239834A1, “MCC-257 MODULATION OF NEUROGENESIS” (BrainCells, Inc., priority 2008, published 2009)
“Also recorded” adds a separate entry of the source.

Key:
[1] = test system: neural progenitor cells within the dentate gyrus of the hippocampus; experiment: In vivo neurogenesis, BrdU positive cell counts in the dentate gyrus; parameters: species or system rat; settings: 0.3 mg/kg orally q.d., chronic (26 or 28 days as printed); vs vehicle; FIG. 3
Protocol: The white bar represents vehicle (DI water, n=11) and the grey bar represents MCC-257 dosed at 0.3 mg/kg (n=10). Both vehicle and MCC-257 were dosed orally once daily (q.d.) for 26 days prior to analysis. […] Data are presented as the number of BrdU cells per cubic mm of dentate gyrus. […] Values are the mean±SEM.
For the in vivo neurogenesis assays, male F344 rats were dosed orally once daily (q.d.) for 28-days with vehicle (DI water; n=11) or 0.3 mg/kg MCC-257 ([…]). BrdU was administered once daily between days 9 and 14 (100 mg/kg/day, i.p.).

[2] = test system: human neural stem cells (hNSCs); experiment: Neuronal differentiation of human neural stem cells (TUJ-1 staining); assay type: cell-based
Description: FIG. 1 is a dose-response curve showing the effect of MCC-257 on neuronal differentiation of human neural stem cells. Data is presented as the percentage of the neuronal positive control, with basal media values subtracted.
Human neural stem cells (hNSCs) were isolated and grown in monolayer culture, plated, treated with varying concentrations of MCC-257, and stained with TUJ-1 antibody for the detection of neuronal differentiation as described in U.S. Patent Publication 2007/0015138 (incorporated by reference). Mitogen-free test media with a positive control for neuronal differentiation was used along with basal media without growth factors as a negative control.
The data is presented as a percent of neuronal positive control.

male F344 rats [3] = experiment: Novelty-suppressed feeding test (NSF), chronic dosing; assay type: in vivo, rat; settings: vs vehicle, p<0.05 one-tailed Student's t-test, FIG. 2
Protocol: The white bar represents the vehicle control (DI water; n=10), the black bar represents fluoxetine dosed at 12.5 mg/kg (n=11) and the grey bar represents MCC-257 dosed at 0.3 mg/kg (n=11). Vehicle and compounds were administered orally once daily (q.d.) for 20 days prior to behavioral testing. Behavioral testing was carried out as described in Example 2. […] Values are the mean±SEM.
The NSF is a conflict test in which food-deprived animals are presented with a food pellet placed in the center of a brightly-lit open field. This paradigm elicits competing motivations: the drive to eat the food pellet, and the fear of venturing into the center of the arena. The dependent variable in this test is the amount of time it takes for an animal to begin eating the pellet, and this latency has been used as an index of anxiety-like behavior and antidepressant activity because it is decreased by classical anxiolytic drugs such as benzodiazepines (Bodnoff et al. “The effects of chronic antidepressant treatment in an animal model of anxiety.” 1988 Psychopharmacology (Berl) 95(3):298-302; Bodnoff et al. “A comparison of the effects of diazepam versus several typical and atypical anti-depressant drugs in an animal model of anxiety.” 1989 Psychopharmacology (Berl) 97(2):277-9; Shephard and Broadhurst, “Hyponeophagia and arousal in rats: effects of diazepam, 5-methoxy-N,N-dimethyltryptamine, d-amphetamine and food deprivation.” 1982 Psychopharmacology (Berl) 78(4):[…]) as well as antidepressants.
NSF is performed as described previously by Santarelli, et al. (2003) with some modifications. Briefly, male F344 rats were dosed orally once daily (q.d.) for 20-days with vehicle (DI water; n=10), 12.5 mg/kg fluoxetine (n=11) or 0.3 mg/kg MCC-257 (n=11). Animals were food deprived for 24 hours prior to testing. On day 22, 60 minutes after drug administration, NSF was performed in an open field chamber. A single pellet of rodent chow was placed in the center of the open field. […] Saved videos were subsequently scored by blinded observers and the latency to eat the pellet was recorded.

male F344 rats [4] = experiment: Novel Object Recognition (NOR) cognition assay; assay type: in vivo, rat; settings: 48-hour delay; increasing oral doses q.d., chronic; vs vehicle; FIG. 4
Protocol: Behavioral testing was carried out as described in Example 2. Data is presented as the mean percentage of visits to a novel object. The white bar represents vehicle (DI water: n=11) and grey bars represent increasing doses of MCC-257 (0.1 mg/kg, n=10; 0.3 mg/kg, n=10; 3.0 mg/kg, n=10). All animals were dosed orally once daily (q.d.) for 29 days prior to testing. […] Values are the mean±SEM.
NOR was performed as described previously by Broadbent et al., (“Spatial memory, recognition memory, and the hippocampus.” 2004 PNAS 101(40):14511-14520) with some modifications. The apparatus consisted of an open field (45×45×50 cm high) made of polycarbonate. Triplicate copies were used of the objects to be discriminated. Care was taken to ensure that the pair of objects tested were made from the same material so that they could not be distinguished readily by olfactory cues although they had very different appearances. Each test session consisted of two phases. In the initial familiarization phase, two identical objects (A1 and A2) were placed in the far corners of the box arena. A rat was then placed in the middle of the arena and allowed 15 minutes to explore both objects. Exploration of an object was defined as directing the nose to the object at a distance of less than 2 cm and/or touching it with the nose. After a delay of 48-hours the rat was re-introduced to the arena (“test phase”). […]

Structure (SMILES) | BrdU positive cells per cubic mm in granule cell layer of dentate gyrus (neurogenesis) [1] | EC50 ([2]; Homo sapiens, Neural stem cell, read-out: EC50 of neuronal differentiation) | effect on neuronal differentiation ([2]; concentration response curve, percent of neuronal positive control, FIG. 1) | latency to eat a food pellet in a novel environment (male F344 rats [3]; 0.3 mg/kg orally q.d. for 20 days) | preference for the novel object (percent visits) (male F344 rats [4]) | latency to eat a food pellet in a novel environment (male F344 rats [3]; 12.5 mg/kg orally q.d. for 20 days) | latency to eat a food pellet in a novel environment (male F344 rats [3]; 12.5 mg/kg orally q.d. for 20 days, listed as Fluoxetine)
CO[C@]1(C(=O)N[C@@H]2CC[C@@]3(C)[C@@H](CC[C@@H]4[C@@H]3CC[C@]3(C)[C@@H]([C@H](C)CCCC(C)C)CC[C@@H]43)C2)C[C@H](O)[C@@H](NC(C)=O)[C@H]([C@H](O)[C@H](O)CO)O1 [MCC-257, 5-acetamido-N-(5alpha-cholestan-3alpha-yl)-3,5-dideoxy-2-O-methyl-D-glycero-alpha-D-galacto-non-2-ulopyranosonamide] | significant increase; also recorded: significantly increased neurogenesis | 90 nM | promoted neuronal differentiation in a concentration dependent manner | significantly reduced latency to eat | dose dependent increase in preference for the novel object; also recorded: dose-related increase in preference for the novel object |  | 
CNCCC(Oc1ccc(C(F)(F)F)cc1)c1ccccc1 (stereo not shown) [fluoxetine, reference compound] |  |  |  |  |  | significantly reduced | significantly reduced latency to eat
